{
  "source": "patent US20080026074A1",
  "about": "“Method of short term skin wrinkles correction using strontium divalent ion” (priority 2006, published 2008)",
  "key": {"[1]": {"conditions": "taken orally, long term use; cited from earlier work"}, "photoaged skin": {"test_system": "photoaged skin", "experiment": "topical application of strontium ion in a carrier to skin", "type": "in vivo", "conditions": "carrier e.g. distillate of orange flower petals (neroli floral water), within minutes of application", "experimental": "The epidermal ridges are less pronounced, an effect that may be related to relaxation of erector muscles.\nThis effect lasted for about 4 hours."}},
  "data": [
    {"compound": "[Sr+2]", "note": "[strontium ion]", "values": [
      {"measurement": "toxicity", "setting": "[1]", "result": "toxicity is not a problem"},
      {"measurement": "effect on skin texture", "setting": "photoaged skin", "result": "changes the texture of photoaged skin, resulting in a more youthful complexion"}
    ]}
  ]
}
